Values of other authors as cited in US8017143B2, “Coating agent for drug releasing stent, preparation method thereof and drug releasing stent coated therewith” (Taewoong Medical Co., Ltd, priority 2007, dated 2011).

Details: esophageal, prostate, rectal, bladder cancer, hepatic, central nervous system and brain tumors

For CC(=O)O[C@H]1C(=O)[C@@]2(C)[C@H]([C@H](OC(=O)c3ccccc3)[C@]3(O)C[C@H](OC(=O)[C@H](O)[C@@H](NC(=O)c4ccccc4)c4ccccc4)C(C)=C1C3(C)C)[C@]1(OC(C)=O)CO[C@@H]1C[C@@H]2O [taxol], the therapeutic effects is given as “excellent therapeutic effects”.
